Laboratory results: patent publication US7041821B2, “Synthetic molecules for labeling histidine-rich proteins” (The Regents of the University of California, priority 2003, dated 2006)
Where two headings read alike, the source gives them in different places.

Experiments:
his6-CFP = details: +Zn2+ + his6-CFP: 1 μM dye, pH 7.2, 100 μM ZnCl2 and 1 μM his6-CFP
Experimental: Excitation (ex), emission (em) maxima (in nm) and fluorescence quantum yields (φ) of 1 μM dye in 100 mM KCl 10 mM MOPS pH 7.2 with 50 μM EDTA (—Zn^2+), 100 μM ZnCl2 (+Zn^2+) or 100 μM ZnCl2 and 1 μM his6-CFP (+Zn^2++his6-CFP).

poly-histidine peptide = system: poly-histidine peptide
Experimental: (§1) A solution of Compound (I) in buffer containing 1 μM Zn^2+ was added extracellularly to intact HEK293 cells expressing a His6-tagged test-protein, targeted to the surface of the cell membrane.

[1] = system: HEK293 cells expressing a His6-tagged test-protein
Source text: A gene encoding the peptide […] (His6-) was created by the polymerase chain reaction (PCR), using pRSETB template (Invitrogen). BglII and SacII restriction sites were incorporated at the 5′ and 3′ ends of the gene, by using the forward primer […] and reverse primer […]. For expression on the surface of mammalian cells, the gene was inserted into the pDisplay vector (Invitrogen) using the BglII and SacII restriction sites. This vector supplies the necessary sequences for entry into the secretory pathway and anchoring to the outer face of the plasma membrane.
HEK 293 cells were plated onto sterilized glass cover slips on 2 cm dishes or 10 cm plates and grown to 50–100% confluency in DMEM supplemented with 10% FBS at 37° C. in 6% CO2. Cells were transfected with FUGENE-6 transfection reagent (Roche Molecular Biochemicals). After 24 to 48 h incubation at 37° C. in culture medium, the cells were washed once with Hanks' balanced salt solution buffer (HBSS). Then 2 mL of the staining solution (HEPES buffer with 1 μM free Zn^2+ (pH 7.4), ˜1–1.5 μM of compound (I) (DMSO stock)) was added to the cells. After 1 min, the cells were washed twice with HBSS and imaged. Imaging experiments were performed with excitation at 540 nm (25 nm bandwidth), emission at 595 nm (50 nm bandwidth), and dichroic mirror at 560 nm for the Zn-compound (I); and excitation at 420 nm (20 nm bandwidth), emission at 475 nm (40 nm bandwidth) and dichroic mirror at 450 nm for CFP.
as §1

[2] = remark: listed apart in the source
Experimental: Formation of the Zn-complex can be monitored by absorbance or fluorescence emission and excitation shifts. Aliquots of a dye stock solution in DMSO were added to 500 μL of buffers containing 10 nM, 100 nM, 1 μM or 10 μM free zinc (controlled by Ca^2+/Zn^2+ EGTA and 10 mM HEPES; see Walkup, G. K., Burdette, S. C., Lippard, S. J., and Tsien, R. Y., J. Am. Chem. Soc. 2000, 122, 5644–5645) or zinc free (10 mM HEPES, 1 mM EDTA buffer) solutions to yield approximately 1–1.5 μM dye solution (ε˜65,500 M^−1 cm^−1).

[3] = +Zn2+: 1 μM dye, pH 7.2, 100 μM ZnCl2
[4] = −Zn2+: 1 μM dye, 100 mM KCl 10 mM MOPS pH 7.2, 50 μM EDTA

| Compound | Emission maximum (em) (his6-CFP) [nm] | Excitation maximum (ex) (his6-CFP) [nm] | Fluorescence quantum yield (φ) (his6-CFP) | Emission maximum (em) [3] [nm] | Excitation maximum (ex) [3] [nm] | Fluorescence quantum yield (φ) [3] | Emission maximum (em) [4] [nm] | Excitation maximum (ex) [4] [nm] | Fluorescence quantum yield (φ) [4] | Fluorescence anisotropy binding (poly-histidine peptide) | Speed of staining ([1]; intact HEK293 cells, 1 μM Zn2+) | Staining of non-transfected cells ([1]; neighboring non-transfected HEK293 cells, same staining) | Reversibility of staining ([1]; washing with EDTA solutions (FIG. 7)) | Staining of transfected cells ([1]; ~1–1.5 μM compound, 1 μM free Zn2+, added extracellularly, 1 min, washed) | Extinction coefficient ε ([2]; dye solution in HEPES buffers) | Fluorescence quantum yield ([2]; virtually unchanged between 0 and 1 μM free Zn2+ (FIG. 2)) |
| --- | --- | --- | --- | --- | --- | --- | --- | --- | --- | --- | --- | --- | --- | --- | --- | --- |
| 2′,7′-bis(2-dimethylaminoethanesulfonamido)-4′,5′-difluorofluorescein [Compound II] | 560 | 531 | 0.19 | 560 | 523 | 0.37 | 544 | 517 | 0.47 | – | – | – | – | – | – | – |
| 2′,7′-bis(2-pyridylsulfonamido)-4′,5′-difluorofluorescein [Compound IV] | 570 | 545 | 0.08 | 566 | 533 | 0.35 | 547 | 525 | 0.60 | – | – | – | – | – | – | – |
| Cc1c(O)c(NS(=O)(=O)c2ccccn2)cc2c1Oc1c(cc(NS(=O)(=O)c3ccccn3)c(O)c1C)C21OC(=O)c2ccccc21 [Compound I, 2′,7′-Bis(pyridyl-2-sulfonamido)-4′,5′-dimethylfluorescein] | 560 | 536 | 0.09 | 557 | 523 | 0.34 | 545 | 518 | 0.40 | clearly indicate binding to a poly-histidine peptide | stains cells virtually instantaneously | no staining | staining is reversible by washing with EDTA solutions | transfected cells clearly showed membrane specific fluorescent staining | ~65,500 M^−1 cm^−1 | ~0.4 |
